{"source": "paper PMC8138767", "about": "“Intrinsically disordered substrates dictate SPOP subnuclear localization and ubiquitination activity” (The Journal of Biological Chemistry, 2021)", "key": {"[1]": {"tested_on": "SPOP-dependent turnover in T-REx-293 cells", "assay": "SPOP-dependent Pdx1 stability (Western blot)", "assay_type": "cell-based", "details": "no MG132, harvested 28 h after transfection, Western blot (Fig. S3D)", "protocol": "In a similar experiment, the cells were not treated with a proteasome inhibitor to observe the SPOP-dependent stability of each Pdx1 variant.\nT-REx-293 cells (Invitrogen) were seeded at a density of 0.8 × 10^6 per well in 6-well plates (tissue culture–treated plates (cat. no 3516, Corning)). After 24 h, cells were transfected with plasmids encoding Pdx1–GFP, SPOP–myc, His–ubiquitin, HA–Rbx1, and myc–CUL3 (as indicated) using the Qiagen Effectene transfection reagent. 24 h after transfection, the cells were treated with either dimethyl sulfoxide or 20 μM MG132 for 4 h before being harvested. Cells were lysed in buffer A (6 M guanidine HCl, 100 mM sodium phosphate, pH 8.0, and 10 mM imidazole). The lysates were sonicated, cleared, and incubated with Ni-NTA Agarose (Qiagen) for 3 h at RT, followed by 16 h at 4 °C. The beads were washed twice with buffer A and twice with a buffer composed of 1:3 buffer A:buffer T1 (buffer T1: 25 mM Tris HCl, pH 8.0, and 20 mM imidazole). The beads were finally transferred to buffer T1 and then boiled in the SDS-PAGE loading buffer containing 300 mM imidazole. Pdx1 stability assays were performed as described above, except that the cells were not treated with MG132. Cells expressing Pdx1–GFP or a variant were harvested 28 h after transfection, resuspended in 2x SDS-loading dye, and boiled for 5 min before SDS-PAGE analysis.\nAll proteins were resolved by SDS-PAGE. Separated proteins were analyzed by immunoblotting using either the ECL or the ECL Select Western blotting detection reagents (Amersham). The antibodies used were mouse anti-Pdx1 used at 1:500 for pulldown or 1:2000 for inputs (clone 26771, MAB2419, R&D Systems), mouse anti-myc (1:250, clone 9E10, Santa Cruz Biotechnology), and rabbit anti-GAPDH (1:8000, clone EPR1689, Abcam). horseradish peroxidase-conjugated secondary antibodies were sourced from Jackson ImmunoResearch Laboratories and used at 1:20,000 dilution (goat anti-rabbit IgG, 111-035-003 and goat anti-mouse, 115-035-003)."}, "SPOP": {"tested_on": "SPOP", "details": "previously described, no reference given; cited from earlier work", "source_text": "SPOP derives its name from the […]. Specifically, SPOP colocalizes with nuclear speckles but has also been reported in other subnuclear compartments ([24], [26]). The nuclear speckles that house SPOP in the absence of high concentrations of substrate are liquid-like in nature ([21]). The SPOP substrate DAXX typically localizes to promyelocytic leukemia bodies ([27])."}, "SPOP28–359": {"target": "T1, SPOP28–359 (Homo sapiens, UniProt O43791)", "T1 construct": "A plasmid encoding His–SUMO–SPOP human residues 28 to 359; His-SUMO (N, cleaved yes); made in house; host or cells: E. coli Rosetta BL-21(DE3)", "T1 sequence (O43791 28-359)": "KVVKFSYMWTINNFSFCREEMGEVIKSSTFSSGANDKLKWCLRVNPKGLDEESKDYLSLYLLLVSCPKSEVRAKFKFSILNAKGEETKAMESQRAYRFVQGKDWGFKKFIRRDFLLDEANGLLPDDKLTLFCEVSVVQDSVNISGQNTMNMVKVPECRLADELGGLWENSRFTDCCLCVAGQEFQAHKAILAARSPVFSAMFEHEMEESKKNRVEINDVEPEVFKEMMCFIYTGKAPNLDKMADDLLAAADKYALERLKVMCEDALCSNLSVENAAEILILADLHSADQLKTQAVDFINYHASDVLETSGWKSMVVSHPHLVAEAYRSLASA", "assay": "Competition fluorescence anisotropy, displacement of f-Puc from oligomeric SPOP28–359", "assay_type": "binding", "details": "competition FA; Fig. 5B and Table S4", "source_text": "An Escherichia coli codon-optimized DNA sequence encoding amino acids 205 to 283 of the human Pdx1 sequence (Pdx1-C) in the multiple cloning site of pET49b(+) was purchased from GeneArt (Thermo Fisher). The pET49b(+) backbone encodes for N-terminal glutathione S-transferase and 6X His tags, followed by a 3C protease recognition motif. In all experiments described herein, a mutant containing an exogenous tryptophan at the N terminus of the human Pdx1-C sequence was used for the purposes of quantitation. Mutations in Pdx1-C were generated by Q5 site-directed mutagenesis (New England Biolabs) with primers designed on NEBbasechanger.com according to the manufacturer protocol. […]\nAll FA experiments were conducted in 50 mM sodium phosphate, pH 6.5, 50 mM sodium chloride, 5 mM DTT, 1% BSA, and 0.01% Triton X-100. In all experiments, the source of fluorescence signal was f-Puc purchased from GenScript, at a final concentration of 40 nM. […] The fluorescence polarization of each well was measured (from which FA was calculated) using either a TECAN Infinite M1000 Pro or BioTek Synergy 4 fluorometer. […] FA data points were fit to a complete competitive binding model ([23]) to determine dissociation constants using in-house Python scripts (see Quantification and statistical analysis). […]"}, "[2]": {"assay": "In vitro phase separation of Pdx1", "assay_type": "physicochemical"}}, "data": [{"substance": "Pdx1: full-length human Pdx1 (amino acids 1-283) with a C-terminal GFP tag", "values": [{"measurement": "SPOP-dependent Pdx1 stability", "setting": "[1]; listed as Pdx1-GFP-WT", "result": "almost entirely degraded"}, {"measurement": "SPOP-dependent Pdx1 stability", "setting": "[1]; listed as Pdx1–WT", "result": "readily degraded"}, {"measurement": "type of ubiquitination previously described", "setting": "SPOP", "result": "primarily monoubiquitination"}, {"measurement": "enhancement in binding affinity to oligomeric SPOP28–359 compared with SPOP–MATH", "setting": "SPOP28–359", "result": "~10", "unit": "fold"}, {"measurement": "in vitro phase separation", "setting": "[2]", "result": "do not observe in vitro phase separation"}]}]}
